Data set [1] concerns mice chronically challenged with BLM. The experiment in a line: Chronic BLM challenge model (BLM intraperitoneally twice a week for 33 days), treatment with CPP-DPs. The format is in vivo, mouse. The settings on record: for total body weight over time: intraperitoneal three times a week, started after 14 days of challenge. An excerpt: FIG. 6. Therapeutic effects of CPP-DPs in the chronic BLM challenge model. A. Time course schematic of the chronic BLM challenge model. B. Time-dependent changes in total body weight (mean percent of initial body weight ±SD. Asterisks indicate higher (p<0.05) body weights in CPP-DP-treated compared to PBS control-treated mice. C. Individual collagen levels, μg per mg of wet lung tissue (left), and IL-33 levels, pg per mg of wet lung tissue (right), in lung homogenates from mice treated as indicated. Asterisks indicate lower (p<0.05) levels in BLM-challenged, PBS-treated control mice.
We then considered that such acute model of bleomycin injury, despite its universal use in this field of work, is well known to represent the chronic nature of human pulmonary fibrosis less accurately than the chronic model of systemic BLM delivery. In the chronic model, BLM is injected intraperitoneally twice a week for 33 days, with subsequent assessment of pulmonary changes (FIG. 6A). We challenged mice in this fashion, and, after 14 days such chronic challenge at which point the decline in their total body weight became obvious (FIG. 6B), initiated treatment with CPP-DP5, CPP-DP10, or PBS injected intraperitoneally three times a week (FIG. 6A). […] Of note, such therapy with CPP-DP5 was efficacious despite the continued challenge with repeated administration of BLM (FIG. 6A).

In data set [2] the test system is mice challenged intratracheally with a single dose bleomycin (BLM). Description: Acute BLM challenge model (intratracheal 0.08 U BLM), therapeutic regimen with CPP-DPs. The data set is classed as in vivo, mouse. The settings on record: for collagen accumulation in lung / pulmonary IL-33 accumulation: end of 3 weeks, vs PBS-treated animals; for total body weight over time: intraperitoneal once a day from day 8 for 2 weeks, vs BLM-challenged, PBS-treated mice. An excerpt:
FIG. 5. Therapeutic effects of CPP-DPs in the acute BLM challenge model. A. Time course schematic of the acute BLM challenge model. […] Data in panels B and C were pooled data from separate 3 experiments.
To test the ability of these peptides to deplete the levels of IL-33 in vivo and to assess their ability to modulate the degree of pulmonary fibrosis, these peptides were synthesized, HPLC-purified, and tested in the therapeutic regimen in mice challenged intratracheally with a single dose bleomycin (BLM). In this acute BLM challenge mode, mice received intratracheal 0.08 U of BLM or an equal volume phosphate-buffered saline (PBS) control and allowed to respond to such injury for a week without any intervention. On day 8, intraperitoneal administrations of CPP-DPs once a day were started and continued for 2 weeks. In the end of the 3 weeks, mice have been euthanized, lungs extracted, and pulmonary levels of IL-33 and collagen measured.

Data set [3] deals with Wild-type C57BL/6 mice challenged with BLM. The experiment in a line: Acute BLM model in vivo (single intratracheal 0.075 U BLM), therapeutic regimen with Series 2 peptides. Set-up: species or system mouse. As to conditions: for pulmonary levels of IL-33 (ELISA, lung homogenates) / total lung collagen (QuickZyme assay): 10 nmol/g intraperitoneal daily on days 5-13, day 14; for signs of toxicity (ruffled fur, hunched posture, reduced mobility, diarrhea, weight lost, tachypnea) / therapeutic effect against fibrosis: acute BLM injury model; for signs of toxicity (ruffled fur, hunched posture, reduced mobility, diarrhea, weight lost, tachypnea): in vivo; for therapeutic effect against fibrosis: therapeutic mode. An excerpt: FIG. 2. Design of decoy peptides in Series 2 (A), the effects of peptides 2-5 and 2-10 on pulmonary levels of IL-33 (B, D), and collagen (C, D) proteins in the acute BLM model in vivo. In panels B and D, mean ±SD values are shown. […] Wild-type C57BL/6 mice were challenged with a single intratracheal instillation of 0.075 U of BLM or PBS vehicle, and the disease was allowed to evolve for 5 days. On days 5-13, mice received daily intraperitoneal injections of 10 nmol/g of peptides 2-5 or 2-10, or PBS vehicle. Mice were euthanized on day 14, and IL-33 levels measured by ELISA in lung homogenates, whereas total lung collagen was measured using QuickZyme assays.
(§1) We propose development of a new IL-33 attenuating therapy based on CPP-DP-based strategy. […] In each peptide 1-1 and 1-2, the CPP penetratin was N-terminally fused to the DP. The final sequences of peptides 1-1 and 1-2 were […] (SEQ ID NO:69) and ROIKIWFONRRMKWKKFRRETTKRPSLKTG (SEQ ID NO:70), respectively, with the CPP portion shown in italic and the DP portions underlined. Primary fibroblasts were electroporated with FLIL33-encoding and, separately, control non-coding vehicle (NULL) plasmids, and, after 24 h, the medium was replaced with added peptides 1-1 or 1-2. Based on our experience with CPP-DPs, initial concentrations of 20 μM and 40 μM were tested. After an additional 24 h, cells were lysed and the lysates were analyzed for the levels of IL-33 by ELISA. […] The most likely explanation for this effect is based on our previous experience of depleting IPOS with CRISPR-Cas9, AdV-shRNA, and siRNA technologies (Clerman et al., J Biol Chem. (2017). 292:21653-61: Kopach et al., J Biol Chem. (2014). 289:11829-43). We previously observed that a complete or nearly complete depletion of IPO5 using these methodologies quickly leads to cell death, whereas substantial yet incomplete depletion of IPO5 levels abrogates FLIL33 without affecting cell viability. We argue that peptide 1-1 is “too effective” in binding IPO5, thus competing for it not only with FLIL33 but also with other critical molecular partners, and ultimately impeding on cell survival. We then undertook a more rigorous, unbiased approach, based on the following considerations. As stated above in relation to Example 1, there are possible multiple other regions in the N-terminal portion of FLIL33 that control its stability, subcellular localization, secretion, maturation, and functional binding of intracellular molecular partners. Targeting by DPs needs to cover the entire N-terminal part of FLIL33 and be performed in a systematic fashion, and the data integrated with the observations in Examples 1 and 2. […] We began by designing Series 2 of overlapping DPs that together cover the entire N-terminus of FLIL33. In all cases, a different CPP (TAT) is fused on the N terminus, based on the possibility that it may decrease the peptide load per cell and thus limit toxicity. […] We then proceeded to test the capacity of this peptide to deplete the levels of IL-33 in vivo and to determine whether such depletion may be protective, in the therapeutic mode, against fibrosis in the acute BLM injury model. […] Thus, peptide 2-5 fused with TAT may be a promising therapeutic agent. However, this and other peptides in this series need to be considered in detail.
For orientation: In an ELISA, binding on a coated surface is turned into a signal by an enzyme label.

In data set [4] the test system is IL-33. The experiment in a line: Initial cell culture screening tests of Series 2 peptides for depletion of IL-33. The data set is classed as cell-based. As to conditions: TAT-fused Series 2 peptide, most pronounced of the series. An excerpt:
We propose development of a new IL-33 attenuating therapy based on CPP-DP-based strategy. […] In each peptide 1-1 and 1-2, the CPP penetratin was N-terminally fused to the DP. The final sequences of peptides 1-1 and 1-2 were […] (SEQ ID NO:69) and ROIKIWFONRRMKWKKFRRETTKRPSLKTG (SEQ ID NO:70), respectively, with the CPP portion shown in italic and the DP portions underlined. Primary fibroblasts were electroporated with FLIL33-encoding and, separately, control non-coding vehicle (NULL) plasmids, and, after 24 h, the medium was replaced with added peptides 1-1 or 1-2. Based on our experience with CPP-DPs, initial concentrations of 20 μM and 40 μM were tested. After an additional 24 h, cells were lysed and the lysates were analyzed for the levels of IL-33 by ELISA. […] The most likely explanation for this effect is based on our previous experience of depleting IPOS with CRISPR-Cas9, AdV-shRNA, and siRNA technologies (Clerman et al., J Biol Chem. (2017). 292:21653-61: Kopach et al., J Biol Chem. (2014). 289:11829-43). […]
Studies in human and mouse cell cultures. […] CPP-DPs and control CPPs will be added to cell culture, and the levels of the overexpressed proteins assessed in cell lysates by ELISA as well as by WB for the HA-tag, which is attached to the C-terminus of all of these proteins.

The test system of data set [5] is Primary fibroblasts. The experiment in a line: Cell viability / toxicity of peptides in FLIL33-overexpressing or NULL-transfected primary fibroblasts. The settings on record: for effect on cell viability (toxicity to cells): initial concentrations of 20 μM and 40 μM, FLIL33-overexpressing or NULL-transfected fibroblasts, 24 h. The format is cell-based.
Excerpt: as §1

Where [6] appears, read: vs CPP-DP10-treated and PBS-treated controls.

No end group written: not given here.

Consider GRKHKRHLVLAACQQQ [peptide 2-10], for which the “total body weight over time” value in data set [1] is listed as “not”. Besides, in data set [2], the “collagen accumulation in lung” value is given as “not” and the “total body weight over time” value was “closely followed the same trend”. Also, in data set [3], the “pulmonary levels of IL-33 (ELISA, lung homogenates)” value is on record as “not”; the “total lung collagen (QuickZyme assay)” value is reported as “not”; the “signs of toxicity (ruffled fur, hunched posture, reduced mobility, diarrhea, weight lost, tachypnea)” value is listed as “Neither of these two peptides caused any signs of toxicity”; the “therapeutic effect against fibrosis” value is given as “did not”.

In the case of QQKAKEVCPMYFMKLR [peptide 2-5], the “depletion of IL-33” value in data set [4] is “exceeding 60 % of the original levels”. In addition, in data set [1], the “total body weight over time” value was “regained their body weight in a time-dependent fashion”. In data set [1] (setting [6]), the “collagen accumulation in lung” value is reported as “significantly less collagen” and the “pulmonary IL-33 accumulation” value is “significantly less”. In data set [2], the “collagen accumulation in lung” value was “significantly less collagen”, the “pulmonary IL-33 accumulation” value is listed as “significantly less” and the “total body weight over time” value was “quickly recovered their body weight”. In data set [3], the “pulmonary levels of IL-33 (ELISA, lung homogenates)” value is “attenuated the levels of IL-33”; the “total lung collagen (QuickZyme assay)” value is given as “arrested deposition of collagen”; the “signs of toxicity (ruffled fur, hunched posture, reduced mobility, diarrhea, weight lost, tachypnea)” value is “Neither of these two peptides caused any signs of toxicity”; the “therapeutic effect against fibrosis” value is “encouraging therapeutic effect”.

With “RQIKIWFQNRRMKWKKFMKLRSGLMIKKEA-NH2 [peptide 1-1]”, in data set [5], the “effect on cell viability (toxicity to cells)” value was “highly toxic to cells”. In addition, the “concentrations at which the peptide remains toxic (as low as)” value in data set [5] (serial dilutions) is at least 2500 nM. Moreover, in data set [5] (serial dilutions, lower concentrations), the “toxicity at concentrations lower than 2.5 μM” value was “becomes non-toxic”.

As to “RQIKIWFQNRRMKWKKFRRETTKRPSLKTG-NH2 [peptide 1-2, ROIKIWFONRRMKWKKFRRETTKRPSLKTG]”, the “effect on cell viability (toxicity to cells)” value in data set [5] is given as “no effect on cell viability”.

SGLMIKKEACYFRRET [2-7]: in data set [2], the “collagen accumulation in lung” value is recorded as “significantly less collagen”, the “pulmonary IL-33 accumulation” value is “significantly less” and the “total body weight over time” value was “quickly recovered their body weight”.

For the origin of these results see patent publication US20250188141A1, “DECOY PEPTIDES FOR TREATING DISEASES OR CONDITIONS MODULATED BY INTERLEUKIN-33” (University of Maryland, Baltimore, priority 2022, published 2025).
